The values below come from patent publication US7956072B2, “Agent for repairing corneal sensitivity containing amide compound” (Senju Pharmaceutical Co., Ltd., priority 2004, dated 2011).

Entries after “also recorded” stand apart in the source; their conditions may differ.

Assay [1] has as its system rabbit corneal hyposensitivity model. Kind of assay: Improving effect on rabbit corneal hyposensitivity using microkeratome (corneal flap model, Cochet-Bonnet corneal sensitivity meter). Format: in vivo. The conditions noted are these: 0.01% instillation; for recovery of corneal sensitivity relative to control group: 50 μL 4 times a day for 1 week or 2 weeks after corneal flap preparation, measured weekly 1 to 8 weeks postsurgery, hydrochloride. The method, then: Japanese white rabbits (body weight 2.5-3.0 kg) purchased from Japan SLC were used. The animals were housed separately in cages in a room set to room temperature 23±3° C., humidity 55±10%, 12 hr light cycle (light on 8 am, light off on 8 pm) from arrival to the end of the test. A limited amount of a solid feed (Labo R-stock, Nosan Corporation, 100 g for one day) was given to the animals and a free access to tap water was allowed.
As the test substance, compound 1 was used. Compound 1 was dissolved in the following base solution to 0.01% and administered by instillation. The base solution was administered to the control group by instillation.
Prior to the start of the test, the anterior segment of eye of the animal was visually observed and cornea stained marks by fluorescein was observed, and the rabbits showing no abnormality in them were selected. Using Cochet-Bonnet corneal sensitivity meter (manufactured by LUNEAU), the initial value of corneal sensitivity was measured.
Intramuscular injection (0.9 mL/kg) of a Celactal (2% xylazine):Ketalar (5% ketamine)=0.5:1 mixture was given to the animals to perform systemic anesthesia, and the eyeball was sufficiently exposed. Using microkeratome (MK2000, Nidek) attached a rabbit eye adaptor inside a suction ring, a corneal flap (diameter 8.5 mm) was prepared with a 130 μm thick blade (Arbelaez M C. et al., J. Refract Surg., 2002 May-Jun. 18 (3 Suppl): S357-60). The corneal flap was certainly put back into position under a microscope, and the animal was woken up from the anesthesia while observing the animal to prevent displacement of the flap. […]
The corneal sensitivity was measured using a Cochet-Bonnet corneal sensitivity meter once every week from one to eight weeks after the surgery. […]
For statistical analysis, a parametric Dunnett multiple comparisons test (one sided) (SAS preclinical package; Version 5.0, SAS Institute Japan) was used and a risk of less than 5% was evaluated as significant.

Assay [2] has as its system cultured rabbit trigeminal nerve cells. Briefly: Promoting effect on neuritogenesis in cultured rabbit trigeminal nerve cell. Format: cell-based. The conditions noted are these: compound 1 final concentration 1 μM, 48 hr of culture. An excerpt:
Japanese White rabbits (2-3 days old) purchased from KITAYAMA LABES Co., Ltd. were used.
The trigeminal nerve cell was isolated according to the report of Chan et al. (Chan, Kuan Y. and Haschke, Richard H., Exp. Eye Res., 41: 687-699, 1985). To be specific, under ether anesthesia, after cardiac perfusion with saline, the trigeminal ganglia was removed, dispersed using a nerve dispersion solution (SUMITOMO BAKELITE Co., Ltd.) to give a cell suspension. […]
After 48 hr of culture, the cells were fixed with 4% paraformaldehyde at room temperature for 2 hr, and nerve cell body and neurite were fluorescence stained using an anti-neurofilament 200 antibody (Sigma) that specifically recognizes neurofilaments which are intermediate filaments specific to a nerve cell and a fluorescent secondary antibody reactive therewith.
The stained cells were imported as images from a fluorescence microscope into a computer and the cell body diameter and neurite length of the imported cell images were measured using an image analysis software (Image-Pro Plus ver. 4.0, Planetron. Inc.). The cells of 3 wells were measured for each of the compound 1 addition group and the control group. The cells having a neurite with a length of not less than twice the diameter of a cell body were taken as neuritogenetic cells, and the percentage (%) of the neuritogenetic cells in the total cells measured was calculated.

Turning to `C[C@@H](N)c1ccc(C(=O)Nc2ccnc3[nH]ccc23)cc1.Cl` [compound 1, (R)-(+)-N-(1H-pyrrolo[2,3-b]pyridin-4-yl)-4-(1-aminoethyl)benzamide 1 hydrochloride], the “corneal sensitivity compared to control group (statistical analysis)” value in assay [1] (1-week administration group, at 5 week postsurgery, Dunnett test, p<0.05) is recorded as “significantly high”. Further, the “recovery of corneal sensitivity relative to control group” value is on record as “has an effect of promoting the recovery of corneal hyposensitivity” in assay [1] and “better recovery of corneal sensitivity than in the control group” in assay [1] (listed as test substance). The “neuritogenesis of cultured trigeminal nerve cells (fluorescence microscope observation)” value in assay [2] (anti-neurofilament 200 staining, hydrochloride) is “many cells having a long-extended neurite were observed; also recorded: promotes neuritogenesis”. The “percentage (%) of the neuritogenetic cells in the total cells measured” value in assay [2] (N=3, mean, control group 24%, p<0.001 vs control) stood at 54.6%.
